The structures appear in SMILES notation.

DLK, sequence (Q12852 1-520): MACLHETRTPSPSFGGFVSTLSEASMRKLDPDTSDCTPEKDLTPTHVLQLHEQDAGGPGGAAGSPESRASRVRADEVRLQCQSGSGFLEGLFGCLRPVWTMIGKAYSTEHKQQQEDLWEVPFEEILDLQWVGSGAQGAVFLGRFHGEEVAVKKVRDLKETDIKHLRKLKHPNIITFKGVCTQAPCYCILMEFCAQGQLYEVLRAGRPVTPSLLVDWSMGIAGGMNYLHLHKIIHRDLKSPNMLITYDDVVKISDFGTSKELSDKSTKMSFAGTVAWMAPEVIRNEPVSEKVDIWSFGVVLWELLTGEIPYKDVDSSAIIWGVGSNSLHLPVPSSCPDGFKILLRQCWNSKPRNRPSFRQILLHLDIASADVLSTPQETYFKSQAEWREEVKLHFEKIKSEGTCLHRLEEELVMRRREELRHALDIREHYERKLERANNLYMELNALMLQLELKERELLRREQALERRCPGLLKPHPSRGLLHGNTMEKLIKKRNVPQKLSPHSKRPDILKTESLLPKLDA

The assay deals with DLK (Homo sapiens (Human), UniProt Q12852). The assay can be described thus: DLK TR-FRET Inhibition Assay. The class given is biochemical. To be noted: N-terminally GST-tagged DLK (catalytic domain amino acid 1-520), MKK4 K131M substrate, 30 μM ATP; read-out: DLK HTRF Ki. An outline of the steps:
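GST-tagged DLK catalytic domain (aa 1-520, 5 nM) phosphorylates 40 nM HIS-tagged MKK4 K131M with 30 μM ATP, pH 7.5, 60 min at ambient temperature; compounds 1:3 serial from 20 uM. Phospho-MKK4 detected by TR-FRET (Eu-cryptate anti-phospho-MKK4/D2 anti-HIS) after 3 h.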
Background: Time-resolved FRET reads energy transfer from a long-lived donor to a nearby acceptor.
A word on the Ki: it is a measure of affinity in units of concentration, obtained from inhibition or displacement. Regarding `CC1(C)OCCn2c1nc1c(N3CCC(C(F)(F)F)C3)nc(-c3cnc(N)nc3)nc12` (stereo not drawn) [Example 28, 5-[8,8-Dimethyl-1-(3-trifluoromethyl-pyrrolidin-1-yl)-5,6-dihydro-8H-7-oxa-2,4,4b,9-tetraaza-fluoren-3-yl]-pyrimidin-2-ylamine], the Ki is 245 nM.

As to `CC1(C)OCCn2c1nc1c(N3CCC(F)(F)C3)nc(-c3cnc4ccnn4c3)nc12` [Example 83], the Ki worked out at 497 nM.

Turning to `CC1(C)OCCn2c1nc1c(N3CCC(F)(F)C3)nc(-c3cnc(N)c(F)c3)nc12` [Example 82], the Ki stood at 280 nM.

With `C[C@@H]1OCCn2c1nc1c(N3CC4CC3C4)nc(-c3cnc(N)nc3)nc12` (single isomer, unassigned) [Example 107], the Ki came out at 59.7 nM.

Turning to `CC(C)Oc1nc(-c2cnc(N)nc2)nc2c1nc1n2CCOC1(C)C` [Example 85], the Ki came out at 571 nM.

As to `CC1(C)OCCn2c1nc1c(N3CCC(F)(F)C3)nc(-c3cnc(N)nc3)nc12` [Example 76], the Ki was 97.6 nM.

In the case of `Nc1ncc(-c2nc(N3CC4CC3C4)c3nc4n(c3n2)CCO[C@@H]4C(F)(F)F)cn1` (single isomer, unassigned) [Example 99], the inhibition constant Ki amounted to 866 nM.

`C[C@H]1CCCN1c1nc(-c2cnc(N)nc2)nc2c1nc1n2CCOC1(C)C` [Example 53, 5-[8,8-Dimethyl-1-((S)-2-methyl-pyrrolidin-1-yl)-5,6-dihydro-8H-7-oxa-2,4,4b,9-tetraaza-fluoren-3-yl]-pyrimidin-2-ylamine]: the inhibition constant (Ki) came out at 479 nM.

Regarding `CC(C)N(c1nc(-c2cnc(N)nc2)nc2c1nc1n2CCOC1(C)C)C1CC1` [Example 63, 2-(2-aminopyrimidin-5-yl)-N-cyclopropyl-N-isopropyl-6,6-dimethyl-8,9-dihydro-6H-[1,4]oxazino[4,3-e]purin-4-amine], the Ki turned out to be 558 nM.

On to `CC1CCN(c2nc(-c3cnc(N)nc3)nc3c2nc2n3CCOC2(C)C)C1` (stereo not drawn) [Example 27, 5-[8,8-Dimethyl-1-(3-methyl-pyrrolidin-1-yl)-5,6-dihydro-8H-7-oxa-2,4,4b,9-tetraaza-fluoren-3-yl]-pyrimidin-2-ylamine], for which the Ki turned out to be 299 nM.

In the case of `Cc1c[nH]c2ncc(-c3nc(N4CC5CC4C5)c4nc5n(c4n3)CCOC5(C)C)cc12` [Example 3, 1-(2-Aza-bicyclo[2.2.1]hex-2-yl)-8,8-dimethyl-3-(3-methyl-1H-pyrrolo[2,3-b]pyridin-5-yl)-5,6-dihydro-8H-7-oxa-2,4,4b,9-tetraaza-fluorene], the inhibition constant Ki was determined as 4.92 nM.

With `CC1(C)OCCn2c1nc1c(NC3CC3)nc(-c3cnc(N)nc3)nc12` [Example 59, 2-(2-aminopyrimidin-5-yl)-N-cyclopropyl-6,6-dimethyl-8,9-dihydro-6H-[1,4]oxazino[4,3-e]purin-4-amine], the Ki worked out at 192 nM.

As to `CC(C)N(c1nc(-c2cnc(N)nc2)nc2c1nc1n2CCOC1(C)C)C1CCC1` [Example 64, 2-(2-aminopyrimidin-5-yl)-N-cyclobutyl-N-isopropyl-6,6-dimethyl-8,9-dihydro-6H-[1,4]oxazino[4,3-e]purin-4-amine], the Ki was determined as 267 nM.

Turning to `CC1(C)OCCn2c1nc1c(N3CC4(COC4)C3)nc(-c3cnc(N)nc3)nc12` [Example 50, 5-[8,8-Dimethyl-1-(2-oxa-6-aza-spiro[3.3]hept-6-yl)-5,6-dihydro-8H-7-oxa-2,4,4b,9-tetraaza-fluoren-3-yl]-pyrimidin-2-ylamine], the Ki was 490 nM.

For `CC1(C)OCCn2c1nc1c(OCC3CC3)nc(-c3cnc(N)nc3)nc12` [Example 86], the inhibition constant Ki was determined as 634 nM.

Regarding `CC1(C)OCCn2c1nc1c(N3CC4CC3C4)nc(-c3cnc(N)c(Cl)c3)nc12` [Example 35, 5-[1-(2-Aza-bicyclo[2.1.1]hex-2-yl)-8,8-dimethyl-5,6-dihydro-8H-7-oxa-2,4,4b,9-tetraaza-fluoren-3-yl]-3-chloro-pyridin-2-ylamine], the Ki is 235 nM.

Turning to `COc1cc(-c2nc(N3CCC(F)(F)C3)c3nc4n(c3n2)CCOC4(C)C)cnc1N` [Example 73, 5-(4-(3,3-difluoropyrrolidin-1-yl)-6,6-dimethyl-8,9-dihydro-6H-[1,4]oxazino[4,3-e]purin-2-yl)-3-methoxypyridin-2-amine], the Ki amounted to 297 nM.

Turning to `CC(Oc1nc(-c2cnc(N)nc2)nc2c1nc1n2CCOC1(C)C)C1CC1` (stereo not drawn) [Example 155], the Ki amounted to 1200 nM.

In the case of `Nc1ncc(-c2nc(N3CC4CC3C4)c3nc4n(c3n2)CCOCC4)cn1` [Example 133, 5-(4-(2-azabicyclo[2.1.1]hexan-2-yl)-6,7,9,10-tetrahydro-[1,4]oxazepino[4,5-e]purin-2-yl)pyrimidin-2-amine], the Ki is 447 nM.

As to `COC1CN(c2nc(-c3cnc4[nH]cc(C(F)(F)F)c4c3)nc3c2nc2n3CCCOC2)C1` [Example 145], the Ki is 6.49 nM.

`CC1(C)OCCn2c1nc1c(C3CC3)nc(-c3cnc(N)c(OC(F)F)c3)cc12` [Example 148]: the Ki was found to be 56.9 nM.

In the case of `CC1(C)OCCn2c1nc1c(N3CC4(CCCO4)C3)nc(-c3cnc(N)nc3)nc12` [Example 51, 5-[8,8-Dimethyl-1-(5-oxa-2-aza-spiro[3.4]oct-2-yl)-5,6-dihydro-8H-7-oxa-2,4,4b,9-tetraaza-fluoren-3-yl]-pyrimidin-2-ylamine], the inhibition constant (Ki) stood at 907 nM.

Take `Cn1cc(-c2nc(-c3cnc(N)nc3)nc3c2nc2n3CCOC2(C)C)cn1` [Example 113, 5-(6,6-dimethyl-4-(1-methyl-1H-pyrazol-4-yl)-8,9-dihydro-6H-[1,4]oxazino[4,3-e]purin-2-yl)pyrimidin-2-amine]: the Ki came to 521 nM.

Consider `Cc1c[nH]c2ncc(-c3nc(N4CC(F)C4)c4nc5n(c4n3)CCOC5(C)C)cc12` [Example 4, 1-(3-Fluoro-azetidin-1-yl)-8,8-dimethyl-3-(3-methyl-1H-pyrrolo[2,3-b]pyridin-5-yl)-5,6-dihydro-8H-7-oxa-2,4,4b,9-tetraaza-fluorene], for which the Ki came to 9.74 nM.

In the case of `COCC1CCCN1c1nc(-c2cnc(N)nc2)nc2c1nc1n2CCOC1(C)C` (stereo not drawn) [Example 1, 5-(4-(2-(methoxymethyl)pyrrolidin-1-yl)-6,6-dimethyl-8,9-dihydro-6H-[1,4]oxazino[4,3-e]purin-2-yl)pyrimidin-2-amine], the Ki is 392 nM.

For the compound `CC1(C)OCCn2c1nc1c(N3C[C@H]4CCC(F)(F)[C@H]4C3)nc(-c3cnc(N)nc3)nc12` (racemic) [Example 15, (±)-5-(4-((cis)-4,4-difluorohexahydrocyclopenta[c]-pyrrol-2(1H)-yl)-6,6-dimethyl-8,9-dihydro-6H-[1,4]oxazino[4,3-e]purin-2-yl)pyrimidin-2-amine], the Ki turned out to be 360 nM.

With `CCN(c1nc(-c2cnc(N)nc2)nc2c1nc1n2CCOC1(C)C)C1CC1` [Example 117], the Ki was 0.39 nM.

Consider `CC1(C)OCCn2c1nc1c(N3CCC(F)(F)C3)nc(-c3cnc(N)c(Cl)c3)nc12` [Example 81], for which the Ki worked out at 272 nM.

Regarding `CC1(C)OCCn2c1nc1c(N3CC4CC3C4)nc(-c3cnc4[nH]cnc4c3)nc12` [Example 146], the Ki worked out at 32.2 nM.

Take `COC1CN(c2nc(-c3cnc4[nH]cnc4c3)nc3c2nc2n3CCOC2(C)C)C1` [Example 111, 2-(3H-imidazo[4,5-b]pyridin-6-yl)-4-(3-methoxyazetidin-1-yl)-6,6-dimethyl-8,9-dihydro-6H-[1,4]oxazino[4,3-e]purine]: the Ki is 885 nM.

These data come from US10131675B2 (Genentech, Inc., priority 2015, dated 2018).
